Our source for the viability and inhibition values is article PMC9731497, “Identification of potent anti-Cryptosporidium new drug leads by screening traditional Chinese medicines” (PLOS Neglected Tropical Diseases, 2022).

As usually defined, the viability is a per cent measure of how many cells are alive, often set against a control. Broadly, the inhibition is how much of the control response was suppressed.

Where two headings read alike, the source gives them in different places.

Series [1] can be described thus: Host cell viability assay (Cell-Titer Glo).
Method: HCT-8 cells (4 × 10^4 cells/well) 100 μl were seeded in 96-well plates, cultured for 24 h, and then treated for 48 h with different concentrations of hit compounds (10^1, 1, 10^−1, 10^−2, 10^−3, 10^−4 μM). After a 48-h incubation period, equilibrate the 96-well plates in room temperature (RT) for 30 minutes. Then, equal volume of Cell-Titer Glo (Promega) reagent was added to each treated well, the plate was shaken on an orbital shaker for 2 minutes then incubated for 10 minutes at RT. The luminescence was quantified by the GloMax Navigator plate reader (Promega, Japan) and the cell viability was evaluated as directed by the kit manufacturer. The luminescence signal of control wells containing DMSO was set to 100% cell viability. […] Graph Pad Prism 7.0.1 was used to determine CC50 values.
The test system of a further series is C. parvum HNJ-1 strain. The experiment in a line: In vitro C. parvum growth inhibition assay (Sporo-Glo staining, fluorescence microscopy count in infected HCT-8 cells). Type of series: cell-based, Cryptosporidium parvum. As to conditions: Cryptosporidium parvum, read-out: Parasite inhibition (%). How it is done:
The primary screening of compounds for C. parvum was performed as follows: HCT-8 cells were seeded in 96-well plates at a density of 2 × 10^4 cells/well and allowed to grow overnight. Before infecting cells, Cryptosporidium oocysts were excysted to sporozoites. 87 compounds were tested against C. parvum at a single concentration of 1 μM. Each compound was tested once. Infected HCT-8 cells and uninfected HCT-8 cells were used as positive and negative controls, respectively, in medium containing 0.1% DMSO. Nitazoxanide was used as a standard comparative drug. In vitro inhibition assays were carried out as previously described. Briefly, oocysts were suspended in 1 ml of 0.1% sodium hypochlorite in PBS, incubated for 5 min at 4°C, centrifuged for 10 min at 3000 rpm, and washed three times in PBS. The oocysts were then suspended in excystation solution consisting of 0.75% sodium taurocholate and 0.25% trypsin dissolved in 0.1 M phosphate buffer (with 93.4 mM K2HPO4 and 6.5 mM KH2PO4; pH 8.0) and incubated at 37°C for 1 h. The oocyst/sporozoite suspensions were then rinsed in 1 x PBS (with 137 mM NaCl, 2.7 mM KCl, 8 mM Na2HPO4, and 2 mM KH2PO4; pH 7.5) once more before being filtered through a 5-μm pore-size PVDF filter (Millipore, Burlington, MA, USA) with 5 ml syringe to remove the oocyst wall. HCT-8 cells were seeded in 96-well plates (Thermo Fisher Scientific Inc., MA, USA) and incubated overnight. The cells were then infected with C. parvum sporozoites (4 ×10^4 sporozoites/well) containing in RPMI-1640 medium for 3 h. After 3h inoculation, the non-infected parasite or debris were washed with new RPMI-1640 media. At this point, in RPMI-1640 medium containing 1 μM library compounds were added. Infected cells were incubated for an additional 45 h. Following incubation, the infected cells were fixed for 10 minutes in ice-cold 100% methanol at room temperature. Plates were then carefully rinsed 3 times with PBS. The parasite infected cells were then blocked with 1% bovine serum albumin (BSA) in PBS for 30 minutes and then stained with Sporo-Glo (an anti-Cryptosporidium polyclonal antibody) (Waterborne Environmental, Inc., VA, USA) protected from light for 1 h at room temperature. Finally, cells were washed twice with 1 x PBS-T (1 x PBS supplemented with 0.01% Tween). A Keyence BZ-II 9000 was used to capture the images (KEYENCE, Osaka, Japan). The plates were imaged with a HS all-in-one fluorescence microscope using a 20 x objective. The image output was imported into Microsoft excel for data organization and analyses. All C. parvum parasite in the well were counted.
For a second investigation, four selective hit compounds were used to determine the half-maximum inhibitory concentration (EC50). The parasites were treated with various doses of compounds (ranging from 0.008–1 μM). HCT-8 cells (2 × 10^4 cells/well) were grown for 24 h before being infected with 4 × 10^4 C. parvum sporozoites in 96-well plates. […] Sporo-Glo was used for C. parvum staining as described above. Fluorescence microscopy with a Keyence BZ-II 9000 imager was used to count all Cryptosporidium in the wells (KEYENCE, Osaka, Japan). EC50 vales were determined by analyzing dose-response curves made by GraphPad Prism (GraphPad Software, CA, USA).

Where [2] appears, read: human, HCT-8 cells, Host cell viability (%), 48 h, 1 μM.
Setting [3] is: 1 μM, 45 h, C. parvum HNJ-1 strain in HCT-8 cells, first screen.

As for `CC(C)=CCC[C@](C)(O[C@@H]1O[C@H](CO)[C@@H](O)[C@H](O)[C@H]1O)[C@H]1CC[C@]2(C)[C@@H]1[C@H](O)C[C@@H]1[C@@]3(C)CC[C@H](O)C(C)(C)[C@@H]3[C@@H](O[C@@H]3O[C@H](CO)[C@@H](O)[C@H](O)[C@H]3O[C@@H]3O[C@@H](C)[C@H](O)[C@@H](O)[C@H]3O)C[C@]12C` [Ginsenoside-Re], in series [1] (setting [2]), the viability at 48 h, 1 µM was found to be 98.7%. Further, the inhibition at 1 µM in the series with C. parvum HNJ-1 strain (setting [3]) was found to be 71.2%.

With `CC(C)=CC[C@@H](O)C1=CC(=O)c2c(O)ccc(O)c2C1=O` [Shikonin], the inhibition at 1 µM in the series with C. parvum HNJ-1 strain (HCT-8, 45 h) came out at 66.2%.

The compound `COc1cc(CNC(=O)CCCCCCC(C)C)ccc1O` [Dihydrocapsaicin] registered a viability at 48 h, 1 µM in series [1] (setting [2]) of 98.4%. The inhibition at 1 µM in the series with C. parvum HNJ-1 strain (setting [3]) amounted to 70.8%.

`CC(C)=CCC[C@](C)(O[C@@H]1O[C@H](CO)[C@@H](O)[C@H](O)[C@H]1O)[C@H]1CC[C@]2(C)[C@@H]1[C@H](O)C[C@@H]1[C@@]3(C)CC[C@H](O)C(C)(C)[C@@H]3[C@@H](O[C@@H]3O[C@H](CO)[C@@H](O)[C@H](O)[C@H]3O)C[C@]12C` [Ginsenoside-Rg1] gave a viability at 48 h, 1 µM in series [1] (setting [2]) of 99.1%. In addition, the inhibition at 1 µM in the series on C. parvum HNJ-1 strain (setting [3]) was 67.9%.

In the case of `CC(=O)O[C@H]1[C@H]2O[C@]23[C@@H]2CC[C@]4(O)C[C@@H](O)CC[C@]4(C)[C@H]2CC[C@]3(C)[C@H]1c1ccc(=O)oc1` [Cinobufotalin], the viability at 48 h, 1 µM in series [1] (human, Host cell viability (%), HCT-8 cells, 48 h, 1 μM) turned out to be 97.8%. Besides, the inhibition at 1 µM in the series on C. parvum HNJ-1 strain (HCT-8, 45 h) was 70.7%.
